Earlier results, collected in patent US20240139133A1, “TOPICAL NAPROXEN FORMULATIONS AND THEIR USE” (SMARTECH TOPICAL, INC., priority 2021, published 2024).

Conditions: printed as a negative log P

log P: ~-0.5
Structure (SMILES): CCOCCOCCO [Transcutol, 2-(2-Ethoxyethoxy)ethanol]
